# Experiments:
# Experiment in all cases: in vitro antibacterial evaluation, MIC by broth dilution
# Assay type in all cases: cell-based
# [1] = system: Enterococcus sp.; conditions: broth dilution, 18 hours at 35° C.
# In short: (§1)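 Read-out: the lowest concentration at which the test strain fails to grow. Serial dilutions (64-0.06 μg/mL) in Muller-Hinton II […], 5×10^5 CFU/mL inoculum, NCCLS M7-A2 procedure.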
# [2] = system: Escherichia coli; conditions: 18 hours at 35° C.
# In short: as §1
# [3] = system: Staphylococcus sp.; conditions: broth dilution, 18 hours at 35° C.
# In short: as §1
# [4] = system: Streptococcus sp.; conditions: broth dilution, 18 hours at 35° C.
# In short: as §1
structure (smiles),measurement,setting,value
CC(c1ccccc1)C1NC(=O)CNC(=O)C(CO)NC(=O)C(C(O)C2CNC(=N)N2C2OC(CO)C(O)C(O)C2O)NC(=O)C(C(O)C2CNC(=N)N2)NC(=O)C(Cc2ccc(OC3OC(CO)C(OC4OC5COC(CC67CC8CC(CC(C8)C6)C7)OC5C(O)C4O)C(O)C3O)cc2)NC1=O (stereo not shown) [Example 129],MIC Enterococcus avium (GC 4558),[1]; Enterococcus avium (GC 4558),2 µg/mL
same,MIC Enterococcus faecalis (ATCC 29212),[1]; Enterococcus faecalis (ATCC 29212),2 µg/mL
same,MIC Enterococcus faecalis (GC 2242),[1]; Enterococcus faecalis (GC 2242),2 µg/mL
same,MIC Enterococcus faecalis (GC 2691),[1]; Enterococcus faecalis (GC 2691),2 µg/mL
same,MIC Enterococcus faecalis (GC 3059),[1]; Enterococcus faecalis (GC 3059),2 µg/mL
same,MIC Enterococcus faecalis (GC 4552),[1]; Enterococcus faecalis (GC 4552),2 µg/mL
same,MIC Enterococcus faecalis (GC 4553),[1]; Enterococcus faecalis (GC 4553),2 µg/mL
same,MIC Enterococcus faecalis (GC 4554),[1]; Enterococcus faecalis (GC 4554),2 µg/mL
same,MIC Enterococcus faecalis (GC 6189),[1]; Enterococcus faecalis (GC 6189),2 µg/mL
same,MIC Enterococcus faecium (GC 2243),[1]; Enterococcus faecium (GC 2243),2 µg/mL
same,MIC Enterococcus faecium (GC 4556),[1]; Enterococcus faecium (GC 4556),2 µg/mL
same,MIC Enterococcus faecium (GC 4557),[1]; Enterococcus faecium (GC 4557),2 µg/mL
same,MIC Enterococcus faecalis (ATCC 29212),[1]; strain ATCC 29212,2 µg/mL
same,MIC Enterococcus faecalis (GC 2242),[1]; strain GC 2242,2 µg/mL
same,MIC Enterococcus faecium (GC 2243),[1]; strain GC 2243,2 µg/mL
same,MIC Enterococcus faecalis (GC 2691),[1]; strain GC 2691,2 µg/mL
same,MIC Enterococcus faecalis (GC 3059),[1]; strain GC 3059,2 µg/mL
same,MIC Enterococcus faecalis (GC 4552),[1]; strain GC 4552,2 µg/mL
same,MIC Enterococcus faecalis (GC 4553),[1]; strain GC 4553,2 µg/mL
same,MIC Enterococcus faecalis (GC 4554),[1]; strain GC 4554,2 µg/mL
same,MIC Enterococcus faecium (GC 4556),[1]; strain GC 4556,2 µg/mL
same,MIC Enterococcus faecium (GC 4557),[1]; strain GC 4557,2 µg/mL
same,MIC Enterococcus avium (GC 4558),[1]; strain GC 4558,2 µg/mL
same,MIC Enterococcus faecalis (GC 6189),[1]; strain GC 6189,2 µg/mL
same,MIC Escherichia coli (ATCC 25922),[2]; strain ATCC 25922,32 µg/mL
same,MIC Escherichia coli (GC 4559),[2]; strain GC 4559,32 µg/mL
same,MIC Escherichia coli (GC 4560),[2]; strain GC 4560,2 µg/mL
same,MIC Staphylococcus aureus (ATCC 29213),[3],4 µg/mL
same,MIC Staphylococcus aureus (GC 1131),[3],2 µg/mL
same,MIC Staphylococcus aureus (GC 3051),[3],2 µg/mL
same,MIC Staphylococcus aureus (GC 3053),[3],2 µg/mL
same,MIC Staphylococcus aureus (GC 4541),[3],2 µg/mL
same,MIC Staphylococcus aureus (GC 4542),[3],2 µg/mL
same,MIC Staphylococcus aureus (GC 4544),[3],2 µg/mL
same,MIC Staphylococcus aureus (GC 4545),[3],2 µg/mL
same,MIC Staphylococcus aureus (GC 1131),"[3]; inoculum 5×10^5 CFU/mL, strain GC 1131",2 µg/mL
same,MIC Staphylococcus aureus (ATCC 29213),[3]; strain ATCC 29213,4 µg/mL
same,MIC Staphylococcus aureus (GC 3051),[3]; strain GC 3051,2 µg/mL
same,MIC Staphylococcus aureus (GC 3053),[3]; strain GC 3053,2 µg/mL
same,MIC Staphylococcus aureus (GC 4541),[3]; strain GC 4541,2 µg/mL
same,MIC Staphylococcus aureus (GC 4542),[3]; strain GC 4542,2 µg/mL
same,MIC Staphylococcus aureus-SMITH (GC 4543),[3]; strain GC 4543,2 µg/mL
same,MIC Staphylococcus aureus (GC 4544),[3]; strain GC 4544,2 µg/mL
same,MIC Staphylococcus aureus (GC 4545),[3]; strain GC 4545,2 µg/mL
same,MIC Staphylococcus haemolyticus (GC 4546),[3]; strain GC 4546,2 µg/mL
same,MIC Coagulase Negative Staphylococcus (GC 4547),[3]; strain GC 4547,2 µg/mL
same,MIC Coagulase Negative Staphylococcus (GC 4548),[3]; strain GC 4548,1 µg/mL
same,MIC Coagulase Negative Staphylococcus (GC 4549),[3]; strain GC 4549,1 µg/mL
same,MIC Coagulase Negative Staphylococcus (GC 4551),[3]; strain GC 4551,4 µg/mL
same,MIC Coagulase Negative Staphylococcus (GC 6257),[3]; strain GC 6257,1 µg/mL
same,MIC Staphylococcus aureus-SMITH (GC 4543),[3]; strain SMITH GC 4543,2 µg/mL
same,MIC Streptococcus agalactiae (GC 4564),[4]; Streptococcus agalactiae (GC 4564),<0.06 µg/mL
same,MIC Streptococcus pneumoniae (ATCC 6301),[4]; Streptococcus pneumoniae (ATCC 6301),<0.06 µg/mL
same,MIC Streptococcus pneumoniae (GC 1894),[4]; Streptococcus pneumoniae (GC 1894),<0.06 µg/mL
same,MIC Streptococcus pneumoniae (GC 4565),[4]; Streptococcus pneumoniae (GC 4565),<0.06 µg/mL
same,MIC Streptococcus pyogenes (GC 4563),[4]; Streptococcus pyogenes (GC 4563),<0.06 µg/mL
same,MIC Streptococcus pneumoniae (ATCC 6301),[4]; strain ATCC 6301,<0.06 µg/mL
same,MIC Streptococcus pneumoniae (GC 1894),[4]; strain GC 1894,<0.06 µg/mL
same,MIC Streptococcus pyogenes (GC 4563),[4]; strain GC 4563,<0.06 µg/mL
same,MIC Streptococcus agalactiae (GC 4564),[4]; strain GC 4564,<0.06 µg/mL
same,MIC Streptococcus pneumoniae (GC 4565),[4]; strain GC 4565,<0.06 µg/mL

# Reference: patent US6914045B2, “Glycopeptide antibiotics” (Wyeth Holdings Corporation, priority 2001, dated 2005)
